The record followed here is patent publication US20070270448A1, “Methods of Using and Compositions Comprising a Jnk Inhibitor for the Treatment and Management of Asbestos-Related Diseases and Disorders” (CELGENE CORPORATION, priority 2003, published 2007).

Data set [1] has as its system rat ventral mesencephalan neurons. The data set can be described thus: [3H]Dopamine Cell Culture Assay (6-OHDA neurotoxicity). Format: cell-based. The following applies: 6-OHDA 30 μM, uptake 22 hrs after exposure. The protocol: Cultures of dopaminergic neurons were prepared according to a modification of the procedure described by Raymon and Leslie (J. Neurochem. 62:1015-1024, 1994). Time-mated pregnant rats were sacrificed on embyronic day 14-15 (crown rump length 11-12 mm) and the embryos removed by cesarean section. The ventral mesencephalon, containing the dopaminergic neurons, was dissected from each embryo. Tissue pieces from approximately 48 embryos were pooled and dissociated both enzymatically and mechanically. An aliquot from the resulting cell suspension was counted and the cells were plated in high glucose DMEM/F12 culture medium with 10% fetal bovine serum at a density of 1×10^5 cells/well of a Biocoat poly-D-lysine-coated 96-well plate. The day following plating was considered 1 day in vitro (DIV). Cells were maintained in a stable environment at 37° C., 95% humidity, and 5% CO2. A partial medium change was performed at 3 DIV. […]
[^3H]Dopamine uptake is used as a measure of the health and integrity of dopaminergic neurons in culture (Prochiantz et al., PNAS 76: 5387-5391, 1979). […] Briefly, cells treated with 6-OHDA in the presence and absence of 5-amino-anthra(9,1-cd)isothiazol-6-one were assessed in the uptake assay 22 hrs after exposure to 6-OHDA. […] Radioactivity was removed and the cultures were washed 3× with ice cold PBS. […]

Data set [2] in a line: Brain-Blood Plasma Distribution In Vivo. Also on record: species or system Sprague-Dawley rats. The settings on record: rat. The protocol: 5-Amino-anthra(9,1-cd)isothiazol-6-one was administered intravenously (10 mg/kg) into the veins of Sprague-Dawley rats. After 2 hr, blood samples were obtained from the animals and their vascular systems were perfused with approximately 100 mL of saline to rid their brains of blood. The brains were removed from the animals, weighed, and homogenized in a 50 mL conical tube containing 10 equivalents (w/v) of methanol/saline (1:1) using a Tissue Tearer (Fischer Scientific). The homogenized material was extracted by adding 600 μL of cold methanol to 250 μL of brain homogenate vortexed for 30 sec and subjected to centrifugation for 5 min. After centrifugation, 600 μL of the resulting supernatant was transferred to a clean tube and evaporated at room temperature under reduced pressure to provide a pellet. […] The brain homogenate analysis samples, plasma analysis samples, and standard analysis samples were analyzed and compared using HPLC by injecting 100 μL of a sample onto a 5 μm C-18 Luna column (4.6 mm×150 mm, commercially available from Phenomenex of Torrance, Calif.) and eluting at 1 mL/min with a linear gradient of 30% aqueous acetonitrile containing 0.1% trifluoroacetic acid to 90% aqueous acetonitrile containing 0.1% trifluoroacetic acid over 8 minutes and holding at 90% aqueous acetonitrile containing 0.1% trifluoroacetic acid for 3 min. with absorbance detection at 450 nm. […]

Data set [3] can be described thus: Solubility in aqueous media. Format: physicochemical.

As for `Nc1ccc2snc3c2c1C(=O)c1ccccc1-3` [5-amino-anthra(9,1-cd)isothiazol-6-one], the “protection of dopaminergic neurons ([3H]dopamine uptake)” value in data set [1] is on record as “protects rat ventral mesencephalan neurons from the toxic effects of 6-OHDA”. Besides, the brain-drug concentration result in data set [2] (10 mg/kg intravenously, 2 hr post-dose) was “approximately 65 nmole/g”. Also, in data set [2] (following intravenous administration), the blood-brain barrier crossing entry is recorded as “crosses the blood-brain barrier to a significant extent”. The “solubility in aqueous media” value in data set [3] is “limited solubility”.
